Source: patent US20260053834A1, “COVALENT MODIFIERS OF AKT1 AND USES THEREOF” (Terremoto Biosciences, Inc., priority 2023, published 2026)

Experiments:
[1] = system: LAPC4 prostate cancer cells, which express the AKT1 E17K allele; assay: Antiproliferative effects in LAPC4 cells (CellTiter Glo, 72 h); type: cell-based; settings: Homo sapiens, LAPC4, 72 h, read-out: LAPC4 proliferation IC50: GeoMean IC50
Protocol: Antiproliferative effects in LAPC4 cells. LAPC4 prostate cancer cells (Klein, K. A. et al. Nat Med 1997, 3, 402-408), which express the AKT1 E17K allele, were grown in IMDM media (Hyclone) supplemented with 12% FBS+1% P/S. To assess compound effects on growth, 1,000 cells/well were seeded in 384 well assay plates, incubated with compound dilutions dissolved in DMSO. After 72 h, intracellular ATP content was assessed with CellTiter Glo reagent (Promega) according to the manufacturer's instructions. IC50 values were calculated by fitting luminescence values to a log(inhibitor) vs. response Hill equation.

AKT1 E17K = molecular target: T1, AKT1 E17K (Homo sapiens, UniProt P31749, E17K); assay: Live cell target engagement by NanoBRET competitive probe displacement, AKT1 E17K; type: binding; settings: transfected HEK293 cells, 2 h at 37° C., read-out: AKT1 E17K IC50: GeoMean IC50
T1 construct: expressed in transfected cells; host or cells: HEK293
T1 sequence (P31749 whole entry E17K): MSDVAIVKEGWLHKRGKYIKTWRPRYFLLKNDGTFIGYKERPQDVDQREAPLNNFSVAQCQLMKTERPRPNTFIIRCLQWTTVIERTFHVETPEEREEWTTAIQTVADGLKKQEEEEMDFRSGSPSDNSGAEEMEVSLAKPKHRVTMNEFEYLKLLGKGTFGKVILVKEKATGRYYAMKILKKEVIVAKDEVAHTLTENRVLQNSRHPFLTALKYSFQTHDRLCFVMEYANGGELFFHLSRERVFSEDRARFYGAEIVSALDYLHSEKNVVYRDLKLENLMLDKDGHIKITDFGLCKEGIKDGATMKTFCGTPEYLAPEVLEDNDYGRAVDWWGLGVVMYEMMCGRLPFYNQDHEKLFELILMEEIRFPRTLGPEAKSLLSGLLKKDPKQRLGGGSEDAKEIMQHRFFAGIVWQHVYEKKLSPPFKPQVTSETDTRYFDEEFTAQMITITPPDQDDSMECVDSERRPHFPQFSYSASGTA
Protocol: (§1) Determining live cell AKT1 E17K, AKT1 WT, and AKT2 target engagement by NanoBRET competitive probe displacement. Live cell target engagement assays were performed as described (Vasta, J. D. et al. Cell Chem Biol 2018, 25(11), 206-214). Briefly, HEK293 cells were transfected with plasmids encoding kinase-NanoLuciferase fusion proteins overnight. Cells were then treated with serial dilutions of compound and an ˜EC50 concentration of fluorescently-tagged ATP-competitive tracer (Promega). After incubation for 2 h at 37° C., luciferase substrate and extracellular luciferase inhibitor were added to all wells, and luminescent intensity at 460 nm and 600 nm were measured on a multimode plate-reader. The ratio of E600/E460 was calculated to give the tracer engagement signal (BRET). IC50 values were calculated by fitting BRET values to a log(inhibitor) vs. response Hill equation.

AKT1 WT = molecular target: T2, AKT1 WT (Homo sapiens, UniProt P31749); assay: Live cell target engagement by NanoBRET competitive probe displacement, AKT1 WT; type: binding; settings: transfected HEK293 cells, 2 h at 37° C., read-out: AKT1 WT IC50: GeoMean IC50
T2 construct: expressed in transfected cells; host or cells: HEK293
T2 sequence (P31749 whole entry): as the sequence (P31749 whole entry E17K) above, with K17E counted along it
Protocol: as §1

AKT2 = molecular target: T3, AKT2 (Homo sapiens, UniProt P31751); assay: Live cell target engagement by NanoBRET competitive probe displacement, AKT2; type: binding; settings: transfected HEK293 cells, 2 h at 37° C., read-out: AKT2 IC50: GeoMean IC50
T3 construct: expressed in transfected cells; host or cells: HEK293
T3 sequence (P31751 whole entry): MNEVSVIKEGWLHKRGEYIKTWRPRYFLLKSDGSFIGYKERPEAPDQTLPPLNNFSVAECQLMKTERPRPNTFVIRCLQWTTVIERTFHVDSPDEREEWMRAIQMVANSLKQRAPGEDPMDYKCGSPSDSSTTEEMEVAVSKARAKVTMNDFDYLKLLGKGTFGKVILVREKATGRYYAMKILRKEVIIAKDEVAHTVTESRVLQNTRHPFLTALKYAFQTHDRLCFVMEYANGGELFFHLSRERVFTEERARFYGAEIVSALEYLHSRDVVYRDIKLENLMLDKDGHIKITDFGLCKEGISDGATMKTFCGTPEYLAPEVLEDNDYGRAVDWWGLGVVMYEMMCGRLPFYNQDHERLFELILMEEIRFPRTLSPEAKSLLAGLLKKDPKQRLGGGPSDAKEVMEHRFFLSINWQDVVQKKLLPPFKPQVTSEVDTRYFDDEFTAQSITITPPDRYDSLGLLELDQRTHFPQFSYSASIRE
Protocol: as §1

Compound | IC50 [1] [µM] | IC50 (AKT1 E17K) [µM] | IC50 (AKT1 WT) [µM] | IC50 (AKT2) [µM]
COc1cc(C(=O)N[C@H]2CCc3cc(-n4c(-c5cccnc5N)nc5ccc(-c6ccccc6)nc54)ccc32)cc(C=O)c1O [Example 36, N-[(1S)-5-[2-(2-aminopyridin-3-yl)-5-phenylimidazo[4,5-b]pyridin-3-yl]-2,3-dihydro-1H-inden-1-yl]-3-formyl-4-hydroxy-5-methoxybenzamide] | 0.1 to 2 | 0.01 to 0.1 | 0.01 to 0.1 | 0.1 to 2
Nc1ncccc1-c1nc2c(-n3cccn3)cc(-n3cccn3)nc2n1-c1ccc2c(c1)CC[C@@H]2NC(=O)c1ccc(O)c(C=O)c1 [Example 198, N-[(1S)-5-[2-(2-aminopyridin-3-yl)-5,7-bis(pyrazol-1-yl)imidazo[4,5-b]pyridin-3-yl]-2,3-dihydro-1H-inden-1-yl]-3-formyl-4-hydroxybenzamide] | 0.1 to 2 | 0.01 to 0.1 | 0.01 to 0.1 | 0.1 to 2
COc1cc(-n2cccn2)nc2c1nc(-c1cccnc1N)n2-c1ccc2c(c1)CC[C@@H]2NC(=O)c1cc(C=O)c(O)c(F)c1F [Example 222, N-[(1S)-5-[2-(2-aminopyridin-3-yl)-7-methoxy-5-(pyrazol-1-yl)imidazo[4,5-b]pyridin-3-yl]-2,3-dihydro-1H-inden-1-yl]-2,3-difluoro-5-formyl-4-hydroxybenzamide] | 0.01 to 0.1 | 0.01 to 0.1 | 0.01 to 0.1 | 0.01 to 0.1
Nc1ncccc1-c1nc2ccc(-c3ccccc3)nc2n1-c1ccc2c(c1)CC[C@@H]2NC(=O)c1cnn2ccc(O)c(C=O)c12 [Example 54, N-[(1S)-5-[2-(2-aminopyridin-3-yl)-5-phenylimidazo[4,5-b]pyridin-3-yl]-2,3-dihydro-1H-inden-1-yl]-4-formyl-5-hydroxypyrazolo[1,5-a]pyridine-3-carboxamide] | ≥ 2 | 0.1 to 2 | 0.01 to 0.1 | 0.1 to 2
CS(=O)(=O)Nc1ccc(C(=O)N[C@H]2CCc3cc(-n4c(-c5cccnc5N)nc5ccc(-c6ccccc6)nc54)ccc32)cc1C=O [Example 51, N-[(1S)-5-[2-(2-aminopyridin-3-yl)-5-phenylimidazo[4,5-b]pyridin-3-yl]-2,3-dihydro-1H-inden-1-yl]-3-formyl-4-methanesulfonamidobenzamide] | 0.01 to 0.1 | < 0.01 | 0.01 to 0.1 | 0.01 to 0.1
[N-]=[N+]=Nc1c(C(=O)N[C@H]2CCc3cc(-n4c(-c5cccnc5N)nc5ccc(-n6cccn6)nc54)ccc32)cc(C=O)c(O)c1F [Example 218, (S)—N-(5-(2-(2-aminopyridin-3-yl)-5-(1H-pyrazol-1-yl)-3H-imidazo[4,5-b]pyridin-3-yl)-2,3-dihydro-1H-inden-1-yl)-2-azido-3-fluoro-5-formyl-4-hydroxybenzamide] | 0.1 to 2 | 0.1 to 2 | 0.1 to 2 | 0.1 to 2
CN(C)S(=O)(=O)Nc1ccc(C(=O)N[C@H]2CCc3cc(-n4c(-c5cccnc5N)nc5ccc(-n6cccn6)nc54)ccc32)cc1C=O [Example 154, N-[(1S)-5-[2-(2-aminopyridin-3-yl)-5-(pyrazol-1-yl)imidazo[4,5-b]pyridin-3-yl]-2,3-dihydro-1H-inden-1-yl]-4-[(dimethylsulfamoyl)amino]-3-formylbenzamide] | 0.01 to 0.1 | < 0.01 | 0.01 to 0.1 | 0.1 to 2
CC(=O)Nc1ccc(C(=O)N[C@H]2CCc3cc(-n4c(-c5cccnc5N)nc5ccc(-c6ccccc6)nc54)ccc32)cc1C=O [Example 14, N-[(1S)-5-[2-(2-aminopyridin-3-yl)-5-phenylimidazo[4,5-b]pyridin-3-yl]-2,3-dihydro-1H-inden-1-yl]-4-acetamido-3-formylbenzamide] | < 0.01 | < 0.01 | < 0.01 | 0.01 to 0.1
Nc1ncccc1-c1nc2ccc(-c3ncco3)nc2n1-c1ccc2c(c1)CC[C@@H]2NC(=O)c1cc(C=O)c(O)c(F)c1F [Example 150, N-[(1S)-5-[2-(2-aminopyridin-3-yl)-5-(1,3-oxazol-2-yl)imidazo[4,5-b]pyridin-3-yl]-2,3-dihydro-1H-inden-1-yl]-2,3-difluoro-5-formyl-4-hydroxybenzamide] | 0.01 to 0.1 | 0.01 to 0.1 | 0.01 to 0.1 | 0.1 to 2
Nc1ncccc1-c1nc2ccc(-c3cc4n(n3)CCOC4)nc2n1-c1ccc2c(c1)CC[C@@H]2NC(=O)c1cc(C=O)c(O)cc1F [Example 246, N-[(1S)-5-[2-(2-aminopyridin-3-yl)-5-{4H,6H,7H-pyrazolo[3,2-c][1,4]oxazin-2-yl}imidazo[4,5-b]pyridin-3-yl]-2,3-dihydro-1H-inden-1-yl]-2-fluoro-5-formyl-4-hydroxybenzamide] | 0.01 to 0.1 | 0.01 to 0.1 | 0.01 to 0.1 | 0.1 to 2

Now from value to molecule:

IC50 [1] [µM] | IC50 (AKT1 E17K) [µM] | IC50 (AKT1 WT) [µM] | IC50 (AKT2) [µM] | Compound
0.1 to 2 | 0.01 to 0.1 | 0.1 to 2 | 0.1 to 2 | Nc1ncccc1-c1nc2ccc(-n3cc(C(F)F)cn3)nc2n1-c1ccc2c(c1)CC[C@@H]2NC(=O)c1ccc(O)c(C=O)c1 [Example 94, N-[(1S)-5-[2-(2-aminopyridin-3-yl)-5-[4-(difluoromethyl)pyrazol-1-yl]imidazo[4,5-b]pyridin-3-yl]-2,3-dihydro-1H-inden-1-yl]-3-formyl-4-hydroxybenzamide]
0.01 to 0.1 | 0.01 to 0.1 | 0.01 to 0.1 | 0.1 to 2 | Nc1ncccc1-c1nc2ccc(-c3ccccn3)nc2n1-c1ccc2c(c1)CC[C@@H]2NC(=O)c1ccc(O)c(C=O)c1 [Example 25, (S)—N-(5-(2-(2-aminopyridin-3-yl)-5-(pyridin-2-yl)-3H-imidazo[4,5-b]pyridin-3-yl)-2,3-dihydro-1H-inden-1-yl)-3-formyl-4-hydroxybenzamide]
0.1 to 2 | 0.01 to 0.1 | 0.01 to 0.1 | 0.1 to 2 | Cn1cc(-c2ccc3nc(-c4cccnc4N)n(-c4ccc5c(c4)CC[C@@H]5NC(=O)c4ccc(O)c(C=O)c4)c3n2)nn1 [Example 72, (S)—N-(5-(2-(2-aminopyridin-3-yl)-5-(1-methyl-1H-1,2,3-triazol-4-yl)-3H-imidazo[4,5-b]pyridin-3-yl)-2,3-dihydro-1H-inden-1-yl)-3-formyl-4-hydroxybenzamide]
0.1 to 2 | 0.01 to 0.1 | 0.01 to 0.1 | 0.1 to 2 | Cc1cnc(-c2ccc3nc(-c4cccnc4N)n(-c4ccc5c(c4)CC[C@@H]5NC(=O)c4ccc(O)c(C=O)c4)c3n2)o1 [Example 174, N-[(1S)-5-[2-(2-aminopyridin-3-yl)-5-(5-methyl-1,3-oxazol-2-yl)imidazo[4,5-b]pyridin-3-yl]-2,3-dihydro-1H-inden-1-yl]-3-formyl-4-hydroxybenzamide]
0.01 to 0.1 | 0.01 to 0.1 | 0.01 to 0.1 | 0.1 to 2 | Nc1ncccc1-c1nc2ccc(-c3nccs3)nc2n1-c1ccc2c(c1)CC[C@@H]2NC(=O)c1ccc(O)c(C=O)c1 [Example 57, N-[(1S)-5-[2-(2-aminopyridin-3-yl)-5-(1,3-thiazol-2-yl)imidazo[4,5-b]pyridin-3-yl]-2,3-dihydro-1H-inden-1-yl]-3-formyl-4-hydroxybenzamide]
0.1 to 2 | 0.1 to 2 | 0.1 to 2 | ≥ 2 | COc1ccc2nc(-c3cccnc3N)n(-c3ccc4c(c3)CC[C@@H]4NC(=O)c3ccc(O)c(C=O)c3)c2n1 [Example 46, (S)—N-(5-(2-(2-aminopyridin-3-yl)-5-methoxy-3H-imidazo[4,5-b]pyridin-3-yl)-2,3-dihydro-1H-inden-1-yl)-3-formyl-4-hydroxybenzamide]
0.1 to 2 | 0.01 to 0.1 | 0.1 to 2 | 0.1 to 2 | Nc1ncccc1-c1nc2ccc(-n3cc(Cl)cn3)nc2n1-c1ccc2c(c1)CC[C@@H]2NC(=O)c1ccc(O)c(C=O)c1 [Example 78, N-[(1S)-5-[2-(2-aminopyridin-3-yl)-5-(4-chloropyrazol-1-yl)imidazo[4,5-b]pyridin-3-yl]-2,3-dihydro-1H-inden-1-yl]-3-formyl-4-hydroxybenzamide]
0.01 to 0.1 | 0.01 to 0.1 | 0.01 to 0.1 | 0.1 to 2 | Cn1cc(-c2ccc3nc(-c4cccnc4N)n(-c4ccc5c(c4)CC[C@@H]5NC(=O)c4ccc(O)c(C=O)c4)c3n2)cn1 [Example 28, (S)—N-(5-(2-(2-aminopyridin-3-yl)-5-(1-methyl-1H-pyrazol-4-yl)-3H-imidazo[4,5-b]pyridin-3-yl)-2,3-dihydro-1H-inden-1-yl)-3-formyl-4-hydroxybenzamide]
